Measured values from PubChem BioAssay AID179 (DTP/NCI, 2004).
“And” between values parts separate entries of the source, which are not always exact repeats. Equal values may be shown once. The source made the active and inactive calls.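 The calls were made as follows: active = compounds giving half or more protection of infected cells from virus-caused growth loss, again on retest; inactive = the rest.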 Where a SMILES comes first, the peptide text is derived from it. [ ]: non-standard residue; d: D form. The star is where a group is joined. Phe(2-OMe) = COc1ccccc1C[CH](N)C(=O)O; Cbz = O=C(OCc1ccccc1)*; OBn = c1ccc(CO*)cc1

System: CEM cells HIV-1 protection, formazan growth assay
Experiment: NCI AIDS Antiviral Assay
Conditions: for IC50: measured here: growth of uninfected CEM cells
Outline: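 Category rules: moderately active means at least 50% protection on retest, and confirmed active means 100% protection reproducibly. The underlying data came from a formazan growth assay in HIV-1-infected CEM cells.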

SMILES | EC50 [µM] | IC50 | outcome
CCn1c2cc(C)c(C)cc2nc2cc3c(cc21)c(Cl)c(=O)c1ccccc13 | > 200 | > 200 µM | 
COc1ccc(CSc2ccccc2Cn2cccc2)cc1OC |  |  | inactive
COC1OC2COC1(OCc1ccccc1)C1OC(C)(C)OC21 (stereo not given) | > 200 | > 200 µM | 
NCC1OC(OC2C(N)CC(N)C(O)C2O)C(NC(=O)c2ccccc2)C(O)C1O (stereo not given) |  |  | inactive
[N-]=[N+]=NCc1nc(N)c2c3c(sc2n1)CCCC3 | > 200 | 1.12 µM | 
CC1(C)CCCCCCC2OC2CCCCCC(C)(C)C1=O (stereo not given) | > 200 | 38 µM | 
COc1nc(N)nc2c1CSc1ccccc1-2 | > 77.6 | > 77.6 µM | 
NC(=O)CCNC(=O)c1ccccc1SC(=O)OCCBr | 6.31 | > 200 µM | 
CCOP(=O)(OCC)C(c1ccc(F)cc1)N(C(=O)NC(F)(F)F)c1cccc(C(F)(F)F)c1 (stereo not given) | > 200 | 145 µM | 
c1ccc(N=C(N2CCCCC2)N(CCN2CCCCC2)c2ccccc2)cc1 | > 200 | 1.82 µM | 
COc1ccc(C(c2ccccc2)C(C)C(=O)c2c(C)cc(C)cc2C)cc1 (stereo not given) | > 19.5 | > 19.5 µM | 
C1=C(N2CCOCC2)/C(=C2\SC(=Nc3ccccc3)C(=Nc3ccccc3)N2c2ccccc2)CC1 | > 200 | 138 µM | 
CC1(C)N=C(c2ccccn2)C(c2ccccn2)=NC1(C)C | > 851 | 661 µM | 
NNc1nnc(CCCCCCCCc2nnc(NN)n2N)n1N | > 200 | 37.2 µM | 
CC1c2[nH]c3ccccc3c2CCN1O (stereo not given) |  |  | inactive
COCCCCCCCCCCCC(=O)OCC1OC(n2cc(C)c(=O)[nH]c2=O)CC1N=[N+]=[N-] (stereo not given) | 0.0269 | 34.7 µM | 
CC(C)(C)[Si](C)(C)OCC1OC(n2ccc(=O)[nH]c2=O)C(O[Si](C)(C)C(C)(C)C)C1C/C(N)=N/O (stereo not given) | > 200 | 6.61 µM and 30.9 µM | 
Cc1cccc(C)c1NC(=S)/N=C\c1c(O)[nH]c(=O)[nH]c1=O | > 200 | > 200 µM | 
CON(C)C(=O)C(C)N(Cc1ccccc1)Cc1ccccc1 (stereo not given) | > 83.2 | 33.1 µM | 
CC(=O)C(CN1CCOCC1)C(c1ccccc1)c1c(O)c2ccccc2oc1=O (stereo not given) | > 89.1 | 55 µM | 
CCN(CC)C(=S)SCn1ncc2ccc([N+](=O)[O-])cc21 | > 107 | 10 µM | 
N=c1oc2ccccc2cc1-c1nc2ccccc2c(=O)[nH]1 |  |  | inactive

SMILES | EC50 [µM] | IC50 | outcome
CCOC(=O)c1oc2c(OC)cc(Cl)c3c2c1CCC3 |  |  | inactive
COc1ccc(-c2ncnc(-c3ccc(OC)c(OC)c3)n2)cc1OC | > 100 | > 100 µM | 
COC(=O)C(Cc1ccccc1)C(=O)NC(CNC(=O)OCc1ccccc1)C(=O)OCc1ccccc1 (stereo not given) | > 200 | 29.5 µM | 
O=C1Cc2c([nH]c3ccc(Cl)cc23)-c2ccccc2N1 | > 200 | 17.4 µM | 
CC1(C)C(=O)/C=C\C(=O)C(C)(C)C(=O)/C=C\C(=O)C(C)(C)C2=CC=C(O2)C(C)(C)C(=O)/C=C\C1=O |  |  | inactive
C=C=C(CC(CC=C(C)C)(C(C)=O)C(=O)OC(C)(C)C)S(=O)(=O)c1ccccc1 (stereo not given) | > 32.4 | 6.17 µM | 
O=C(O)C12CC3CC(C1)C2C=C3P(=O)(O)O (stereo not given) | > 1020 | > 1020 µM | 
CCOC(=O)c1c(SC(=O)c2cc(OC)c(OC)c(OC)c2)n(-c2ccccc2)c(=S)n(-c2ccccc2)c1=O | > 200 | 32.4 µM | 
CCC/C(Cl)=N/OC(NC(=O)OCC)(C(F)(F)F)C(F)(F)F | > 200 | 10 µM | 
CN1c2c(C(=O)NCCCN3CCOCC3)nn(-c3cccc(C(F)(F)F)c3)c2-c2ccccc2S1(=O)=O | > 66.1 | > 66.1 µM | 
COc1ccc(NC(=O)c2c(N)c(C#N)c3n2CCC3)cc1 | > 200 | > 200 µM | 
COc1c(-c2ccc3c(c2)OCO3)oc2cc(O)cc(O)c2c1=O | > 200 | 115 µM | 
CC(=O)/C(=C\C1=CCCO1)C(=O)Nc1ccccc1C | > 26.3 | > 26.3 µM | 
O=C(c1ccc(Cl)cc1)c1ccc(OCCCOc2ccc(C(=O)c3ccc(Cl)cc3)cc2Cl)c(Cl)c1 | > 4.79 | > 4.79 µM | 
CC1(C)CC2(S(=O)(=O)c3ccccc3)ON1CC2S(=O)(=O)c1ccccc1 (stereo not given) |  |  | inactive
CC(C)(C)C#CI1OC(=O)c2ccccc21 | > 200 | 2.14 µM | 
CCCCc1ccc(Nc2nc(N)c3[nH]cnc3n2)cc1 | > 200 | 24.5 µM | 
O=C1C(c2cnc3ccccc3n2)=C(O)c2ccccc21 | > 2.63 | > 2.63 µM | 
Cn1cnnc1Sc1c([N+](=O)[O-])nc(-c2ccc([N+](=O)[O-])cc2)n1C | > 100 | 2.95 µM | 
CC1=CN(c2ccccc2)S2=C1c1sc3c(c1N2c1ccc(Br)cc1)CCCC3 (stereo not given) | > 200 | > 200 µM | 
CC(=O)O[C@@H]1CC[C@@]2(C)C(=O)C34C[C@@]5(C)C([C@@H](C)CCCC(C)C)CCC5(C)[C@](O)(O3)C(=O)[C@H]4C2C1(C)C (stereo not given in full) | > 18.6 | > 18.6 µM | 
NS(=O)(=O)c1ccc2c(c1)OCCOCCOCCOCCO2 | > 200 | > 200 µM | 

SMILES | EC50 [µM] | IC50 | outcome
COc1ccc(N2C(=O)C3c4[nH]c5c(C)cccc5c4C4CCC(C(C)C)CC4C3C2=O)cc1 (stereo not given) | > 200 | 23.4 µM | 
CC1(C)COC(=O)N1 | > 1550 | > 1550 µM | 
N#Cc1c(O)c(C=O)c(=O)n2c1[nH]c1ccccc12 | > 200 | 170 µM | 
CC(C)N(C(=O)C12C3C4C1C1C2C3C41C#N)C(C)C (stereo not given) | > 513 | > 513 µM | 
C=C([Si](C)(C)C)[Si](C)(C)C | > 209 | > 209 µM | 
Nc1c(F)c(F)c2c(c1F)N(CCCCCl)c1ccccc1S2 | > 200 | 21.9 µM | 
Cc1ccc(S(=O)(=O)NCCSS(=O)(=O)c2ccc(C)cc2)cc1 | > 25.7 | > 25.7 µM | 
Clc1ccc(-c2c(C3=NCCCN3)nnn2-c2ccccc2)cc1 | > 389 | > 389 µM | 
N#C/C(=C\NC(=S)c1ccncc1)c1nc2ccccc2s1 | > 200 | 145 µM | 
CCOC(=O)/C(=C\c1ccccc1)C(=O)O | > 1120 | 240 µM | 
O=c1c2c3c(sc2nc2n1N=C(c1ccc([N+](=O)[O-])cc1)CS2)CCCC3 | > 200 | > 200 µM | 
COc1ccc(N=Cc2ccc(N(CCC#N)S(=O)(=O)c3ccccc3)cc2)cc1 | > 162 | > 162 µM | 
COc1ccc([C@@H]2CC(=O)NCCCCNCCCN2)cc1 | > 200 | > 200 µM | 
C[C@]12CCc3nonc3C1CC[C@@H]1C2CC[C@]2(C)NC(=O)CCC12 (stereo not given in full) | > 51.3 | > 51.3 µM | 
O=C1NC(=O)c2ccc3c4c(ccc1c24)C(=O)NC3=O | > 200 | > 200 µM | 
N#Cc1c(=O)[nH]c(=O)n2c1[nH]c1ccccc12 | > 200 | > 200 µM | 
COc1ccc2nc3n(c2c1)C(c1c(F)cccc1Cl)SC3 (stereo not given) | > 200 | > 200 µM | 
O=C(O)CNCc1c2ccccc2nc2ccccc12 |  |  | inactive
COC(=O)C(Cc1ccccc1OC)NC(=O)C(CC(=O)OCc1ccccc1)NC(=O)OCc1ccccc1 (stereo not given) (Cbz-Asp(OBn)-[Phe(2-OMe)]-OMe; configuration not given here) | > 200 | 30.2 µM | 
N#C/C(C(=N)c1ccccc1)=C1\SS/C(=C(\C#N)C(=N)c2ccccc2)S1 | > 200 | 6.03 µM | 
